The kinase profiling compilation of Christmann-Franck et al. (2016)

What was measured:
Experiment in all cases: radiometric filter-binding kinase assay
[1] = tested on: AKT1 (human), P31749 [S473D]
[2] = tested on: AKT2 (human), P31751 [S474D]
[3] = target: CSNK2A1 (human) (UniProt P68400)
[4] = target: DYRK3 (human) (UniProt O43781)
[5] = target: EPHB1 (human) (UniProt P54762)
[6] = target: FGFR1 (human) (UniProt P11362)
[7] = target: GSK3B (human) (UniProt P49841)
[8] = target: INSR (human) (UniProt P06213); settings: compound 10.0 µM
[9] = target: INSRR (human) (UniProt P14616)
[10] = target: IRAK4 (human) (UniProt Q9NWZ3)
[11] = tested on: LCK (mouse); settings: accession and sequence are those of the human protein
[12] = target: MAP2K1 (human) (UniProt Q02750)
[13] = target: MAP2K6 (human) (UniProt P52564)
[14] = target: MAP3K9 (human) (UniProt P80192)
[15] = target: MAPK10 (human) (UniProt P53779)
[16] = target: MAPK11 (human) (UniProt Q15759)
[17] = target: MAPK13 (human) (UniProt O15264)
[18] = target: MARK1 (human) (UniProt Q9P0L2)
[19] = target: MARK2 (human) (UniProt Q7KZI7)
[20] = target: MKNK1 (human) (UniProt Q9BUB5)
[21] = target: MYLK (human) (UniProt Q15746)
[22] = target: NEK2 (human) (UniProt P51955)
[23] = target: NEK6 (human) (UniProt Q9HC98)
[24] = tested on: PAK2 (human), Q13177 [T402E]
[25] = target: PHKG1 (human) (UniProt Q16816)
[26] = target: PIM2 (human) (UniProt Q9P1W9)
[27] = target: PIM3 (human) (UniProt Q86V86)
[28] = target: PKN2 (human) (UniProt Q16513)
[29] = tested on: ROCK2 (rat); settings: accession and sequence are those of the human protein
[30] = tested on: RPS6KB1 (human), P23443 [T412E]
[31] = target: SRPK1 (human) (UniProt Q96SB4)
[32] = target: STK11 CAB39 STRADA (human) (UniProt Q9Y376+Q7RTN6+Q15831)
[33] = target: SYK (human) (UniProt P43405)
[34] = target: TBK1 (human) (UniProt Q9UHD2)
[35] = target: TTK (human) (UniProt P33981)
[36] = target: EPHA2 (human) (UniProt P29317)

Sequence of MAPK10 (human) (P53779 whole entry, looked up): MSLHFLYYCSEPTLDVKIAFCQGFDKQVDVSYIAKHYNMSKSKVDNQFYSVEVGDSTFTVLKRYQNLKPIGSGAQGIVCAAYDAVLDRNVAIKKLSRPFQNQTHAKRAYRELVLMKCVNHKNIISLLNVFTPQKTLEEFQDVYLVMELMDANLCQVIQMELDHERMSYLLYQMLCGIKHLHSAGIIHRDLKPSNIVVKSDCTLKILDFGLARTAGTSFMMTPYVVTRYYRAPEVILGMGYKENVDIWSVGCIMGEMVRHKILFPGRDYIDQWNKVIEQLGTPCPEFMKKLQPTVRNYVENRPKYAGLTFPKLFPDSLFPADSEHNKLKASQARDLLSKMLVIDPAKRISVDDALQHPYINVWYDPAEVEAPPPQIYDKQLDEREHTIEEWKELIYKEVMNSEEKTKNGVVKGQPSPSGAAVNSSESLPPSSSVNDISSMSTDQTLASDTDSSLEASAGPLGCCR
Sequence of MAP2K1 (human) (Q02750 whole entry, looked up): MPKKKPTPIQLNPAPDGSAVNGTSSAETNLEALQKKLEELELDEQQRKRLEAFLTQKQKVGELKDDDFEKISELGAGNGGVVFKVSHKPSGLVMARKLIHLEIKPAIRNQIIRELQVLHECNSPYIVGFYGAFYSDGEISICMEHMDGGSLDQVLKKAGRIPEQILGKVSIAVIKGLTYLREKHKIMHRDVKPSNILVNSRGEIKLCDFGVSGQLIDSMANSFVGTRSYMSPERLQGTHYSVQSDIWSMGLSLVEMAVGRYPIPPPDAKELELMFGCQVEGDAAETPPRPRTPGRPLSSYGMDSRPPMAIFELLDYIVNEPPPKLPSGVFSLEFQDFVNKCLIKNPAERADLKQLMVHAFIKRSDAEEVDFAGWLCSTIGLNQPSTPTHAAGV
Sequence of INSRR (human) (P14616 whole entry, looked up): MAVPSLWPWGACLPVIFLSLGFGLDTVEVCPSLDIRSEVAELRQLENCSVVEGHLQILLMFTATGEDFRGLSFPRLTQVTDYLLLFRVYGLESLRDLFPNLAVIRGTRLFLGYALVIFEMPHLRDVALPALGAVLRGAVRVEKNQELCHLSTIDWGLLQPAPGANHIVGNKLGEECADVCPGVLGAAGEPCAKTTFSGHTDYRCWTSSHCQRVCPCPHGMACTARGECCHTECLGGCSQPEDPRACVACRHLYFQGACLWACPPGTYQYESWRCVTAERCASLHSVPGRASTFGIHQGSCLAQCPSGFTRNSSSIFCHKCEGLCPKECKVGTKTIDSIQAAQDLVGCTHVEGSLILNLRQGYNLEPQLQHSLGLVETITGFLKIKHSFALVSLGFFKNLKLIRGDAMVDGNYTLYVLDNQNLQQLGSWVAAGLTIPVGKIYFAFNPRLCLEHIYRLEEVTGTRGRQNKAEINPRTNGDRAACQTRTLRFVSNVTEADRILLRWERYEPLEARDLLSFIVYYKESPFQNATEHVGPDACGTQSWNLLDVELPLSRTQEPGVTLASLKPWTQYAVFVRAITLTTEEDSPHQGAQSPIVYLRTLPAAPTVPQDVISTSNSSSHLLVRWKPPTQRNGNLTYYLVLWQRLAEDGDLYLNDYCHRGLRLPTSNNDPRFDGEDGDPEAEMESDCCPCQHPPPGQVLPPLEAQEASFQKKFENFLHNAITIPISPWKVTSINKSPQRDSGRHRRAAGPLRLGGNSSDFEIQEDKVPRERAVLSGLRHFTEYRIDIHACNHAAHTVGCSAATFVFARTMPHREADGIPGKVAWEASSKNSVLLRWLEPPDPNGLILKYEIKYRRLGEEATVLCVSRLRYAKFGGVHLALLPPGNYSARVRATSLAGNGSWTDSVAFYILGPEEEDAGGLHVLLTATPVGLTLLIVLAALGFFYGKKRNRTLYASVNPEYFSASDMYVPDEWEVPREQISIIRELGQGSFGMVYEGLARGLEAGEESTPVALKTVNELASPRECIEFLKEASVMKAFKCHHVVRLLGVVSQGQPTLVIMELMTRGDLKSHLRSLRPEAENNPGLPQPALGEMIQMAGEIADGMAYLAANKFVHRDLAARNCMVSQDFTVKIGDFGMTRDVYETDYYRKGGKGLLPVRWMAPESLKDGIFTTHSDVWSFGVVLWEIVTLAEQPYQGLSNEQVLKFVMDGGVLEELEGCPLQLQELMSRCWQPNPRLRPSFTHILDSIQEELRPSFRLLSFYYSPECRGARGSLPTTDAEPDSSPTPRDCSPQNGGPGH
Sequence of PHKG1 (human) (Q16816 whole entry, looked up): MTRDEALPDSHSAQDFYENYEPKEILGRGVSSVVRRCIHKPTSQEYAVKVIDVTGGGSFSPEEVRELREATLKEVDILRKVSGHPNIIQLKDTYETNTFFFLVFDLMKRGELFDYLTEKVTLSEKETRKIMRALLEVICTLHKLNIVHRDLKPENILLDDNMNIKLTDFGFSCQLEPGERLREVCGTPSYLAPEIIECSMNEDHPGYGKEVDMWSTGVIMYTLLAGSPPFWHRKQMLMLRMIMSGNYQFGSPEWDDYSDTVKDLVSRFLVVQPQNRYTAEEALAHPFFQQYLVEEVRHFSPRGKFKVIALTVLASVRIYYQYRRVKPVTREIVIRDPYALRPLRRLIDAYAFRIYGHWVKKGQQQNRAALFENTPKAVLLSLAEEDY
Sequence of AKT1 (human), P31749 [S473D] (P31749 whole entry S473D, looked up): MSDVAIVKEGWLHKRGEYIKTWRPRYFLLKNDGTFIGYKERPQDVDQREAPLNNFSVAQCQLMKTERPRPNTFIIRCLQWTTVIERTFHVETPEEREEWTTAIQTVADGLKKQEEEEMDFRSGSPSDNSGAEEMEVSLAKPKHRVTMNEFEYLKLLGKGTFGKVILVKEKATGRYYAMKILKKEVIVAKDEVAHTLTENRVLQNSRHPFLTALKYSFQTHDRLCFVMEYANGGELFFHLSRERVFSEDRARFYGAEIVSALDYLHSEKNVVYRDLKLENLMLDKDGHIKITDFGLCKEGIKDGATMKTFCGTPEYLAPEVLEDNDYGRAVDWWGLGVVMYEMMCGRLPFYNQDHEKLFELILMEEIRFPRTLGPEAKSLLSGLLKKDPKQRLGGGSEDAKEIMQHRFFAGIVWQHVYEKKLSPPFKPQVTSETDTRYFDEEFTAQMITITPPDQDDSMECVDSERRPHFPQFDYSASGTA
Sequence of CSNK2A1 (human) (P68400 whole entry, looked up): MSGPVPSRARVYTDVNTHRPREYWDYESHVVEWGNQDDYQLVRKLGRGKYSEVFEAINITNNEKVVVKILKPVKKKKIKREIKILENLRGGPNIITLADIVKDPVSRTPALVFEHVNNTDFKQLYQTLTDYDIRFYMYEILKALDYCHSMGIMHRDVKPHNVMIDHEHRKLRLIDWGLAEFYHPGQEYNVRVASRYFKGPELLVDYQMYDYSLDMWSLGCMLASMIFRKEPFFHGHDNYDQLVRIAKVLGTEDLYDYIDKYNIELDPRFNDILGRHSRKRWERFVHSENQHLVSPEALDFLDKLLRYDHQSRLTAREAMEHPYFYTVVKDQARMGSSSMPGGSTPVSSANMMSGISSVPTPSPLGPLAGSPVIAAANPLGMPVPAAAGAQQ
Sequence of RPS6KB1 (human), P23443 [T412E] (P23443 whole entry T412E, looked up): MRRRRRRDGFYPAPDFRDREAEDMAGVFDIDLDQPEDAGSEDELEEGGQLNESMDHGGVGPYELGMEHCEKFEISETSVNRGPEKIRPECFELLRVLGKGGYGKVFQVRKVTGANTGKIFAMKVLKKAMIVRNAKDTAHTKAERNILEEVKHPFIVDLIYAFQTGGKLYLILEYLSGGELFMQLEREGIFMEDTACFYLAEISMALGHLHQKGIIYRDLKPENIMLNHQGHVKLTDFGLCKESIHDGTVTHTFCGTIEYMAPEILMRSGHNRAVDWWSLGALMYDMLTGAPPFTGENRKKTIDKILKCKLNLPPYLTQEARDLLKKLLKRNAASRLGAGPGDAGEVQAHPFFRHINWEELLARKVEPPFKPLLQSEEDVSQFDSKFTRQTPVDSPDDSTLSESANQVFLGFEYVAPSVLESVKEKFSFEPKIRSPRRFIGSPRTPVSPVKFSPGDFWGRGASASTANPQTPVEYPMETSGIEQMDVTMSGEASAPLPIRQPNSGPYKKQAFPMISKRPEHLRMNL
Sequence of GSK3B (human) (P49841 whole entry, looked up): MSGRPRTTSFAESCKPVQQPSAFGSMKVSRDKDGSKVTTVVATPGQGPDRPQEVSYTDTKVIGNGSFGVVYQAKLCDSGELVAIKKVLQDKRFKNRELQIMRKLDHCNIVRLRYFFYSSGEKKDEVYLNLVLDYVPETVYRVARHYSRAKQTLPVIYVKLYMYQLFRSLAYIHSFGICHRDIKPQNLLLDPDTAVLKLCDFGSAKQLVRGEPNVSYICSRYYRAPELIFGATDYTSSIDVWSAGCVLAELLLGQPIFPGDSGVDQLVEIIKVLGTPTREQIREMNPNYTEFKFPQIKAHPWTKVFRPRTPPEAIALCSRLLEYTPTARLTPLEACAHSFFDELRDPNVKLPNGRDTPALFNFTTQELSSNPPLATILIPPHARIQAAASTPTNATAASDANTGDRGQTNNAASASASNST
Sequence of PAK2 (human), Q13177 [T402E] (Q13177 whole entry T402E, looked up): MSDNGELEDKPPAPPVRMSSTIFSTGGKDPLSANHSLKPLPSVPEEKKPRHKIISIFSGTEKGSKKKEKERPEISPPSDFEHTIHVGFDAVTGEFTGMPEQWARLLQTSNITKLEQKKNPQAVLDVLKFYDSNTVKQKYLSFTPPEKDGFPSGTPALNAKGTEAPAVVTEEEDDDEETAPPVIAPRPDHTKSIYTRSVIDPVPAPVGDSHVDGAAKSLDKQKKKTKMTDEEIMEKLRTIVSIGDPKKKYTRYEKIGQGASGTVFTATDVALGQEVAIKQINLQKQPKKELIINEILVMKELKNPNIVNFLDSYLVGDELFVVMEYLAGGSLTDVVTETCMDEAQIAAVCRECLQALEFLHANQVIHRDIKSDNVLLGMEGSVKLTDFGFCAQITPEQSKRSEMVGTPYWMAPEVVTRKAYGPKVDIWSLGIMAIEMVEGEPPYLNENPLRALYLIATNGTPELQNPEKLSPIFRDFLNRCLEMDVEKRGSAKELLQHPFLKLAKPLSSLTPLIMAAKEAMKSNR

With `O=S(=O)(c1ccc(F)c2nonc12)N1CCN(c2ncc(C(F)(F)F)cc2Cl)CC1` the residual activity ([1]; compound 10.0 µM) was 97%, the residual activity ([2]; compound 10.0 µM) was 84% and the residual activity ([3]; compound 10.0 µM) was 79%. It also gave a residual activity ([4]; compound 10.0 µM) of 91%, a residual activity ([5]; compound 10.0 µM) of 117% and a residual activity ([6]; compound 10.0 µM) of 106%. The residual activity ([7]; compound 10.0 µM) was 85%, the residual activity [8] was 93% and the residual activity ([9]; compound 10.0 µM) was 102%. The residual activity ([10]; compound 10.0 µM) was 66%, the residual activity ([11]; compound 10.0 µM) was 93% and the residual activity ([12]; compound 10.0 µM) was 99%. It also gave a residual activity ([13]; compound 10.0 µM) of 95%, a residual activity ([14]; compound 10.0 µM) of 108% and a residual activity ([15]; compound 10.0 µM) of 93%. For the same compound, the residual activity ([16]; compound 10.0 µM) was 101%, the residual activity ([17]; compound 10.0 µM) was 85% and the residual activity ([18]; compound 10.0 µM) was 109%. The residual activity ([19]; compound 10.0 µM) was 95%, the residual activity ([20]; compound 10.0 µM) was 70% and the residual activity ([21]; compound 10.0 µM) was 112%. For the same compound, the residual activity ([22]; compound 10.0 µM) was 102%, the residual activity ([23]; compound 10.0 µM) was 78% and the residual activity ([24]; compound 10.0 µM) was 98%. For the same compound, the residual activity ([25]; compound 10.0 µM) was 90%, the residual activity ([26]; compound 10.0 µM) was 97% and the residual activity ([27]; compound 10.0 µM) was 116%. The residual activity ([28]; compound 10.0 µM) was 69%, the residual activity ([29]; compound 10.0 µM) was 95% and the residual activity ([30]; compound 10.0 µM) was 95%. It also gave a residual activity ([31]; compound 10.0 µM) of 82%, a residual activity ([32]; compound 10.0 µM) of 97% and a residual activity ([33]; compound 10.0 µM) of 94%. The residual activity ([34]; compound 10.0 µM) was 85% and the residual activity ([35]; compound 10.0 µM) was 80%.
For `C=C1C(=O)OC2C1CC/C(C)=C/CCC1(C)OC21` (configuration not stated), the residual activity ([1]; compound 1.0 µM) was 107%, the residual activity ([1]; compound 5.0 µM) was 106% and the residual activity ([2]; compound 1.0 µM) was 101%. The residual activity ([2]; compound 5.0 µM) was 92%, the residual activity ([3]; compound 1.0 µM) was 117% and the residual activity ([3]; compound 5.0 µM) was 106%. It also gave a residual activity ([4]; compound 1.0 µM) of 124%, a residual activity ([4]; compound 5.0 µM) of 106% and a residual activity ([36]; compound 1.0 µM) of 104%. It also gave a residual activity ([36]; compound 5.0 µM) of 99%, a residual activity ([5]; compound 1.0 µM) of 103% and a residual activity ([5]; compound 5.0 µM) of 115%. For the same compound, the residual activity ([6]; compound 1.0 µM) was 106%, the residual activity ([6]; compound 5.0 µM) was 99% and the residual activity ([7]; compound 1.0 µM) was 106%. The residual activity ([7]; compound 5.0 µM) was 105%, the residual activity ([9]; compound 1.0 µM) was 107% and the residual activity ([9]; compound 5.0 µM) was 95%. It also gave a residual activity ([10]; compound 1.0 µM) of 106%, a residual activity ([10]; compound 5.0 µM) of 97% and a residual activity ([11]; compound 1.0 µM) of 112%. It also gave a residual activity ([12]; compound 1.0 µM) of 96%, a residual activity ([12]; compound 5.0 µM) of 93% and a residual activity ([13]; compound 1.0 µM) of 96%. For the same compound, the residual activity ([13]; compound 5.0 µM) was 92%, the residual activity ([14]; compound 1.0 µM) was 117% and the residual activity ([14]; compound 5.0 µM) was 95%. The residual activity ([15]; compound 1.0 µM) was 115%, the residual activity ([15]; compound 5.0 µM) was 134% and the residual activity ([16]; compound 1.0 µM) was 111%. The residual activity ([16]; compound 5.0 µM) was 121%, the residual activity ([17]; compound 1.0 µM) was 115% and the residual activity ([17]; compound 5.0 µM) was 113%. For the same compound, the residual activity ([18]; compound 1.0 µM) was 100%, the residual activity ([18]; compound 5.0 µM) was 94% and the residual activity ([19]; compound 1.0 µM) was 112%. The residual activity ([19]; compound 5.0 µM) was 102%, the residual activity ([20]; compound 1.0 µM) was 116% and the residual activity ([20]; compound 5.0 µM) was 94%. It also gave a residual activity ([21]; compound 1.0 µM) of 123%, a residual activity ([21]; compound 5.0 µM) of 113% and a residual activity ([22]; compound 1.0 µM) of 110%. It also gave a residual activity ([23]; compound 1.0 µM) of 113%, a residual activity ([23]; compound 5.0 µM) of 82% and a residual activity ([24]; compound 1.0 µM) of 102%. For the same compound, the residual activity ([24]; compound 5.0 µM) was 103%, the residual activity ([25]; compound 1.0 µM) was 116% and the residual activity ([25]; compound 5.0 µM) was 108%. The residual activity ([26]; compound 1.0 µM) was 110%, the residual activity ([26]; compound 5.0 µM) was 102% and the residual activity ([27]; compound 1.0 µM) was 119%. The residual activity ([27]; compound 5.0 µM) was 121%, the residual activity ([28]; compound 1.0 µM) was 106% and the residual activity ([28]; compound 5.0 µM) was 102%. For the same compound, the residual activity ([29]; compound 1.0 µM) was 123%, the residual activity ([29]; compound 5.0 µM) was 113% and the residual activity ([30]; compound 1.0 µM) was 103%. For the same compound, the residual activity ([30]; compound 5.0 µM) was 106%, the residual activity ([31]; compound 1.0 µM) was 111% and the residual activity ([31]; compound 5.0 µM) was 106%. It also gave a residual activity ([32]; compound 1.0 µM) of 132%, a residual activity ([32]; compound 5.0 µM) of 106% and a residual activity ([33]; compound 1.0 µM) of 102%. For the same compound, the residual activity ([33]; compound 5.0 µM) was 105%, the residual activity ([34]; compound 1.0 µM) was 104% and the residual activity ([35]; compound 1.0 µM) was 109%. The residual activity ([35]; compound 5.0 µM) was 106%.
